Test results as given in BindingDB's records for doi:10.1038/46290 (University of Bristol, 1999).

Target: Glutamate receptor ionotropic, kainate 2 (Homo sapiens, UniProt Q13002)
Sequence (Q13002 whole entry): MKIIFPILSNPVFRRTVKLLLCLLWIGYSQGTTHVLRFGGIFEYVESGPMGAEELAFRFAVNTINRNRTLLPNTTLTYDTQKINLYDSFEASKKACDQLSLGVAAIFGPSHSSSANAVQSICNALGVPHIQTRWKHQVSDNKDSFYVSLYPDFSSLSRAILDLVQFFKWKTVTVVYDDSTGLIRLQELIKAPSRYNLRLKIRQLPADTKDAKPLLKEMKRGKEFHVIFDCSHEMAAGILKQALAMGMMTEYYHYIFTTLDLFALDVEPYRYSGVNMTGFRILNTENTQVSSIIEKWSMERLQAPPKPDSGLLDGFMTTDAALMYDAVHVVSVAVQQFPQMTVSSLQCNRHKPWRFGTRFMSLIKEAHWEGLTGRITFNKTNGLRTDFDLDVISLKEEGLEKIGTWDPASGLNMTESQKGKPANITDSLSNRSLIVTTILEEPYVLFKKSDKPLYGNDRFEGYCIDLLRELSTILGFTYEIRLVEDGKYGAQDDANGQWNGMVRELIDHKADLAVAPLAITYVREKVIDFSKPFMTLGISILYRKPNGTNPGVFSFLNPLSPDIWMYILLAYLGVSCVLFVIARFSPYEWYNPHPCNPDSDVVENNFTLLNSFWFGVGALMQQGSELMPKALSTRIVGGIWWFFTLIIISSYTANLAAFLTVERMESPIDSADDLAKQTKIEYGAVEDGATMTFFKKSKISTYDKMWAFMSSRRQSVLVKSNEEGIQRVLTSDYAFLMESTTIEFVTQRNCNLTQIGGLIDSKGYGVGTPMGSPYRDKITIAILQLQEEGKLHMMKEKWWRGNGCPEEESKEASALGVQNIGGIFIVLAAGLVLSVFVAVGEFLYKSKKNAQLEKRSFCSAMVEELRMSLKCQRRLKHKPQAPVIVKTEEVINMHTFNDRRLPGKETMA

For O=C(O)c1ccc(C[C@H]2CC[C@H]3CN[C@H](C(=O)O)C[C@H]3C2)cc1 [LY 382884], the Ki was > 10 µM.
